Measurements reported in patent publication US10874743B2, “IRAK degraders and uses thereof” (Kymera Therapeutics, Inc., priority 2017, dated 2020).

Molecular target: T1, IRAK4 (Homo sapiens, UniProt Q9NWZ3)
T1 sequence (Q9NWZ3 1-460): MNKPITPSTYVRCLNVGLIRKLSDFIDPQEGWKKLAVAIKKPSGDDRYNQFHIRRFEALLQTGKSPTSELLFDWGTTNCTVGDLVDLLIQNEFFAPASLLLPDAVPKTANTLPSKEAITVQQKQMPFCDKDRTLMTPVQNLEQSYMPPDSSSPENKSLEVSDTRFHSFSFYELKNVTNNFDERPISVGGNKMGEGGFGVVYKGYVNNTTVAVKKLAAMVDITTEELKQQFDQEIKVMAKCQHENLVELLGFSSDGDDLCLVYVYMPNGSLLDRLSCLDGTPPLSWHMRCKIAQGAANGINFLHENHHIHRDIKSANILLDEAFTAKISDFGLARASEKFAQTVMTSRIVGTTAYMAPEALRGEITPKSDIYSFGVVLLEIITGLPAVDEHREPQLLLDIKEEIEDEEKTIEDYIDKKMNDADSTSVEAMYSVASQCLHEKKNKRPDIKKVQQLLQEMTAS
Experiment: OCI-LY-10 degradation assay (western blot, % IRAK4 degraded after 4 hours)
Type: cell-based
Set-up: endogenous in cells; host or cells: OCI-LY10
Details: OCI-LY10 cells, IRAK4 degraded after 4 hours, western blot
Protocol: Compounds were reconstituted in DMSO to make stock solutions at concentration of 60 mM. THP-1 and OCI-LY10 cells were maintained in RPMI-1640 medium containing 10% FBS, 0.5 μM 2-ME or 20% FBS, 55 μM 2-ME, and 1% L-Glutamine respectively.
Cells were seeded into 6-well plates with 5e6 cells per well. 200 μL of diluted compounds were added to cells to the final concentration of 0.003-10 μM. After 4 or 24 hour-incubation at 37° C., cells were collected into 2 mL Eppendorf tubes and centrifuged at 1,000 rpm for 5 min. The cell pellets were washed with 1×DPBS once and resuspended in 60 μL lysis buffer. The cells were lysed on ice for 10 min, then centrifuged at 14,000 rpm for 10 min at 4° C. and the supernatants were collected for western blots. For THP-1 cells, the lysis buffer contained 40 mM pH 7.4 HEPES, 140 mM NaCl, 2.5 mM EDTA, 1% NP-40, 0.1% SDS, and protease inhibitor cocktail (Roche, Cat. No. 05892791001). For OCI-LY10 cells, RIPAbuffer (Thermo Fisher, 89900) with Halt Protease and Phosphatase Inhibitor Cocktail (Thermo Fisher, 78446) was applied.
The protein concentration of cell lysates was quantified with Pierce™ BCA Protein Assay Kit (Pierce, 23227). Albumin standards at different concentrations were prepared, involving 2,000 ug/mL, 1,500 ug/mL, 1,000 ug/mL, 750 ug/mL, 500 ug/mL, 250 ug/mL, 125 ug/mL, and 25 ug/mL. BCA working reagents were prepared by mixing BCA reagent A with reagent B in 50:1 ratio. 200 μL of the BCA working reagents were added to 25 μL of BCA standard or cell lysates in microplate, and mixed thoroughly on a plate shaker for 30 seconds. After incubation at 37° C. for 30 min, the absorbance of samples at 562 nm were measured with EnVision Plate Reader.
Protein lysates were prepared in NuPAGE™ LDS sample buffer and NuPAGE™ sample reducing agent, and incubated at 95° C. for 5 min. For western blots, 20-25 μg of total proteins were resolved in 4-12% Bis-Tris gels (Introgen, WG1403A) or 10% Bis-Tris Midi gels (Invitrogen, WG1202BOX) running with 1×MOPS SDS running buffer (Invitrogen, NP0001) or 1×MES SDS running buffer (Invitrogen, NP0002). The proteins were transferred to low fluorescence PVDF membranes using the Trans-Blot Turbo Transfer System. Membranes were then blocked in Odyssey blocking buffer at RT for 1 h followed by primary incubation at 4° C. overnight. The primary antibodies were IRAK1 rabbit monoclonal antibody (CST, #4504S, 1:500), IRAK3 rabbit polyclonal antibody (CST, #4369, 1:500), IRAK4 rabbit polyclonal antibody (CST, #4363S, 1:1,000), MyD88 rabbit monoclonal antibody (Abcam, Ab133739, 1:2,000), j3-actin mouse monoclonal antibody (Sigma, A5441, 10,000), and Gapdh mouse monoclonal antibody (Millipore, MAB374, 1:5,000). Membranes were washed three times with 1×TBST, and then incubated with IR Dye 800 CW Goat anti-rabbit (Licor, #926-32211) and IR Dye 700 CW Goat anti-mouse (Licor, #926-68070) secondary antibodies in 1:10,000 dilution at RT for 1 h. The western blot images were obtained using Odyssey Imaging System.
OCI-LY-10 results at 4 hours. The letter codes indicate the percentage of IRAK4 degraded after 4 hours: A (>50% degradation), B (>20-50% degradation) and C (<20% degradation)
OCI-LY-10 results at 4 hours. The letter codes for % IRAK4 degradation indicate the percentage of IRAK4 degraded after 4 hours across three different concentrations: A (>50% degradation), B (>20-50% degradation) and C (<20% degradation).

Compound | OCI-LY10 % IRAK4 Degradation
N#Cc1cnc2c(cnn2-c2cc(NC3CC3)c(C(=O)N[C@H]3CC[C@H](C(=O)NCCOCCNCCOCCOCCNc4cccc5c4C(=O)N(C4CCC(=O)NC4=O)C5=O)CC3)cn2)c1 (stereo partly drawn) [I-45, 6-(5-cyano-1H-pyrazolo[3,4-b]pyridin-1-yl)-4-(cyclopropylamino)-N-((1R,4R)-4-((14-((2-(2,6-dioxopiperidin-3-yl)-1,3-dioxoisoindolin-4-yl)amino)-3,9,12-trioxa-6-azatetradecyl)carbamoyl)cyclohexyl)nicotinamide] | C (<20% degradation)
N#Cc1cnc2c(cnn2-c2cc(NC3CC3)c(C(=O)NCC(F)COCCOCCOCCNc3cccc4c3C(=O)N(C3CCC(=O)NC3=O)C4=O)cn2)c1 (stereo not drawn) [I-46, 6-(5-Cyanopyrazolo[3,4-b]pyridin-1-yl)-4-(cyclopropylamino)-N-[3-[2-[2-[2-[[2-(2,6-dioxo-3-piperidyl)-1,3-dioxo-isoindolin-4-yl]amino]ethoxy]ethoxy]ethoxy]-2-fluoro-propyl]pyridine-3-carboxamide] | C (<20% degradation)
O=C1CCC(N2C(=O)c3cccc(NCCOCCOCCOCC(F)CNC(=O)c4cnc(Nc5ccc6ncsc6c5)cc4NC4CC4)c3C2=O)C(=O)N1 (stereo not drawn) [I-54] | C (<20% degradation)
CC(C)(OCCOCCOCCNc1cccc2c1C(=O)N(C1CCC(=O)NC1=O)C2=O)C(F)CNC(=O)c1cnc(Nc2ccc3cnccc3n2)cc1NC1CC1 (stereo not drawn) [I-56] | C (<20% degradation)
N#Cc1cnc2c(cnn2-c2cc(NC3CC3)c(C(=O)NCC(F)COCCOCCOCCOCCOCCNc3cccc4c3C(=O)N(C3CCC(=O)NC3=O)C4=O)cn2)c1 (stereo not drawn) [I-57] | C (<20% degradation)
CC(C)(OCCOCCOCCNc1cccc2c1C(=O)N(C1CCC(=O)NC1=O)C2=O)C(F)CNC(=O)c1cnc(-n2ncc3cc(C#N)cnc32)cc1NC1CC1 (stereo not drawn) [I-59] | C (<20% degradation)
CC(C)(OCCOCCOCCOCCOCCNc1cccc2c1C(=O)N(C1CCC(=O)NC1=O)C2=O)C(F)CNC(=O)c1cnc(-n2ncc3cc(C#N)cnc32)cc1NC1CC1 (stereo not drawn) [I-60] | C (<20% degradation)
O=C1CCC(N2C(=O)c3cccc(NCCOCCOCC(F)CNC(=O)c4cnc(Nc5ccc6cnccc6n5)cc4NC4CC4)c3C2=O)C(=O)N1 (stereo not drawn) [I-61] | C (<20% degradation)
CC(OCCOCCOCCNc1cccc2c1C(=O)N(C1CCC(=O)NC1=O)C2=O)C(F)CNC(=O)c1cnc(Nc2ccc3cnccc3n2)cc1NC1CC1 (stereo not drawn) [I-62] | C (<20% degradation)
CC(OCCOCCOCCNc1cccc2c1C(=O)N(C1CCC(=O)NC1=O)C2=O)C(F)CNC(=O)c1cnc(-n2ncc3cc(C#N)cnc32)cc1NC1CC1 (stereo not drawn) [I-63] | C (<20% degradation)
CC(C)(OCCOCCOCCOCCOCCNc1cccc2c1C(=O)N(C1CCC(=O)NC1=O)C2=O)C(F)CNC(=O)c1cnc(Nc2ccc3cnccc3n2)cc1NC1CC1 (stereo not drawn) [I-64] | C (<20% degradation)
CC(C)(OCCOCCOCCNc1cccc2c1C(=O)N(C1CCC(=O)NC1=O)C2=O)C(F)CNC(=O)c1cnc(Nc2ccc3ncsc3c2)cc1NC1CC1 (stereo not drawn) [I-65] | C (<20% degradation)
CC(OCCOCCOCCOCCOCCNc1cccc2c1C(=O)N(C1CCC(=O)NC1=O)C2=O)C(F)CNC(=O)c1cnc(-n2ncc3cc(C#N)cnc32)cc1NC1CC1 (stereo not drawn) [I-66] | C (<20% degradation)
CC(C)(OCCOCCOCCNc1cccc2c1C(=O)N(C1CCC(=O)NC1=O)C2=O)C(F)CNC(=O)c1cnc(Nc2ncc(C#N)cc2F)cc1NC1CC1 (stereo not drawn) [I-67] | C (<20% degradation)
CC(C)(OCCOCCOCCOCCOCCNc1cccc2c1C(=O)N(C1CCC(=O)NC1=O)C2=O)C(F)CNC(=O)c1cnc(Nc2ccc3ncsc3c2)cc1NC1CC1 (stereo not drawn) [I-68] | C (<20% degradation)
CC(C)(OCCOCCOCCOCCOCCNc1cccc2c1C(=O)N(C1CCC(=O)NC1=O)C2=O)C(F)CNC(=O)c1cnc(Nc2ncc(C#N)cc2F)cc1NC1CC1 (stereo not drawn) [I-69] | C (<20% degradation)
CC(COCC(F)CNC(=O)c1cnc(Nc2ccc3cnccc3n2)cc1NC1CC1)OCCOCCNc1cccc2c1C(=O)N(C1CCC(=O)NC1=O)C2=O (stereo not drawn) [I-70] | C (<20% degradation)
CC(OCCOCCOCCOCCNc1cccc2c1C(=O)N(C1CCC(=O)NC1=O)C2=O)C(F)CNC(=O)c1cnc(-n2ncc3cc(C#N)cnc32)cc1NC1CC1 (stereo not drawn) [I-71] | C (<20% degradation)
N#Cc1cnc2c(cnn2-c2cc(NC3CC3)c(C(=O)NCC(F)COCCOCCOCCOCCNc3cccc4c3C(=O)N(C3CCC(=O)NC3=O)C4=O)cn2)c1 (stereo not drawn) [I-72] | C (<20% degradation)
CC(C)(OCCOCCOCCOCCNc1cccc2c1C(=O)N(C1CCC(=O)NC1=O)C2=O)C(F)CNC(=O)c1cnc(-n2ncc3cc(C#N)cnc32)cc1NC1CC1 (stereo not drawn) [I-73] | C (<20% degradation)
CC(C)(OCCNc1cccc2c1C(=O)N(C1CCC(=O)NC1=O)C2=O)C(F)CNC(=O)c1cnc(Nc2ccc3cnccc3n2)cc1NC1CC1 (stereo not drawn) [I-74] | C (<20% degradation)
CC(C)(OCCNc1cccc2c1C(=O)N(C1CCC(=O)NC1=O)C2=O)C(F)CNC(=O)c1cnc(-n2ncc3cc(C#N)cnc32)cc1NC1CC1 (stereo not drawn) [I-75] | C (<20% degradation)
N#Cc1cnc2c(cnn2-c2cc(NC3CC3)c(C(=O)NCC(F)COCCOCCNc3cccc4c3C(=O)N(C3CCC(=O)NC3=O)C4=O)cn2)c1 (stereo not drawn) [I-76] | C (<20% degradation)
CC(OCCNc1cccc2c1C(=O)N(C1CCC(=O)NC1=O)C2=O)C(F)CNC(=O)c1cnc(Nc2ccc3cnccc3n2)cc1NC1CC1 (stereo not drawn) [I-77] | C (<20% degradation)
CC[C@@H]1[C@H](F)C(=O)N[C@@H]1COc1nccc2cc(C(=O)NCCOCCOCCOCCOCCNc3cccc4c3C(=O)N(C3CCC(=O)NC3=O)C4=O)c(OC)cc12 (stereo partly drawn) [I-78] | C (<20% degradation)
CC(C)(OCCOCCNc1cccc2c1C(=O)N(C1CCC(=O)NC1=O)C2=O)C(F)CNC(=O)c1cnc(-n2ncc3cc(C#N)cnc32)cc1NC1CC1 (stereo not drawn) [I-79] | C (<20% degradation)
CC(C)(OCCOCCNc1cccc2c1C(=O)N(C1CCC(=O)NC1=O)C2=O)C(F)CNC(=O)c1cnc(Nc2ccc3cnccc3n2)cc1NC1CC1 (stereo not drawn) [I-80] | C (<20% degradation)
O=C1CCC(N2C(=O)c3cccc(NCCOCC(F)CNC(=O)c4cnc(Nc5ccc6cnccc6n5)cc4NC4CC4)c3C2=O)C(=O)N1 (stereo not drawn) [I-81] | C (<20% degradation)
N#Cc1cnc2c(cnn2-c2cc(NC3CC3)c(C(=O)NCC(F)COCCNc3cccc4c3C(=O)N(C3CCC(=O)NC3=O)C4=O)cn2)c1 (stereo not drawn) [I-82] | C (<20% degradation)
CC(OCCNc1cccc2c1C(=O)N(C1CCC(=O)NC1=O)C2=O)C(F)CNC(=O)c1cnc(-n2ncc3cc(C#N)cnc32)cc1NC1CC1 (stereo not drawn) [I-83] | C (<20% degradation)
